What all share (assay type): cell-based
The target of test [1] is T1, BRAF G469A (Homo sapiens, UniProt P15056, G469A).
T1 construct: Horizon Discovery (HCT-116 BRAF−/− cells); host or cells: HCT-116 BRAF−/− cells, clone 34, lentiviral transduction
The test is described as follows: BRAF HiBiT degradation assay, C-terminal HiBiT-tagged BRAF G469A overexpressed in HCT-116 BRAF−/− cells (clone 34), Nano-Glo HiBiT Lytic assay. The method in brief: (§1)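 Degradation was read by Nano-Glo HiBiT lytic luminescence, normalised to DMSO-treated tagged cells with wildtype HCT-116 as background. Test cells were lentiviral clones of HCT-116 BRAF−/− carrying HiBiT-tagged mutants in RPMI/10% FBS, given compound at 0.01 nM–1 μM in duplicate. Outputs are the curve-fitted concentration giving 50% degradation and the maximal observed degradation.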

The target of test [2] is T2, BRAF V600E (Homo sapiens, UniProt P15056, V600E).
T2 construct: endogenous C-terminal HiBiT fusion tag on BRAF V600E allele; endogenous in cells; host or cells: A375 clone 1F10 (CRISPR-Cas9 knock-in of the HiBiT tag; parental A375 from ATCC)
T2 sequence (P15056 whole entry V600E, the tested form may be a part): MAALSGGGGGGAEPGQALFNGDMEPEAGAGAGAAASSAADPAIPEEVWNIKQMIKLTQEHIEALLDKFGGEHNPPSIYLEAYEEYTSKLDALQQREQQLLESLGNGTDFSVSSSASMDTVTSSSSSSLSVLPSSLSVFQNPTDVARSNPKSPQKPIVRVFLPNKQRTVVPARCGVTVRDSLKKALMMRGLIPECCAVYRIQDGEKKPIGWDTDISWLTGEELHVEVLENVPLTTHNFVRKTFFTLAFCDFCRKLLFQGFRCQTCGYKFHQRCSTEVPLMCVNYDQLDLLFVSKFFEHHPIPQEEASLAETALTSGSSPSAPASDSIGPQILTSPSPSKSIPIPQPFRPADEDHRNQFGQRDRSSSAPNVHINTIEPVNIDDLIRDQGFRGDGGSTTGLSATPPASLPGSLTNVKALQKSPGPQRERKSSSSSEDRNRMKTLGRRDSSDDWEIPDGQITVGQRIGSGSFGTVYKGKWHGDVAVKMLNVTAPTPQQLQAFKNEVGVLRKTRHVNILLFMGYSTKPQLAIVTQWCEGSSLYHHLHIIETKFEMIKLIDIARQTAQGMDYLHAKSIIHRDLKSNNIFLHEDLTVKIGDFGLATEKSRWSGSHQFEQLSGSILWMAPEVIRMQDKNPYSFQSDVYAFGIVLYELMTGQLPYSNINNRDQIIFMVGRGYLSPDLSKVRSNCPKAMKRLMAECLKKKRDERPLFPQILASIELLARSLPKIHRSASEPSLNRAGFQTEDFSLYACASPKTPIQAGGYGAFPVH
The test is described as follows: BRAF HiBiT degradation assay, C-terminal HiBiT-tagged BRAF V600E A375 cells (clone 1F10), Nano-Glo HiBiT Lytic assay. As to conditions: for Dmax: A-375. Put shortly:
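Luminescence from the Nano-Glo HiBiT lytic read-out gave % BRAF V600E remaining versus DMSO-treated tagged cells, with untagged A375 as background. Clone 1F10 cells (10,000/well, 24 h pre-culture) received compound at 1 μM–0.01 nM in half-log steps, 0.2% DMSO; curve fits gave DC50 at Y=50, plus observed Dmax.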

The target in test [3] is T3, BRAF G466V (Homo sapiens, UniProt P15056, G466V).
T3 construct: Horizon Discovery (HCT-116 BRAF−/− cells); host or cells: HCT-116 BRAF−/− cells, clone 8, lentiviral transduction
T3 sequence (P15056 whole entry G466V): as the sequence (P15056 whole entry V600E, the tested form may be a part) above, with G466V, E600V counted along it
As to the kind of experiment: BRAF HiBiT degradation assay, C-terminal HiBiT-tagged BRAF G466V overexpressed in HCT-116 BRAF−/− cells (clone 8), Nano-Glo HiBiT Lytic assay. Put shortly: as §1
For orientation: The HiBiT peptide binds its large partner to form an active luciferase.

Test [4] concerns the target T4, BRAF D594G (Homo sapiens, UniProt P15056, D594G).
T4 construct: Horizon Discovery (HCT-116 BRAF−/− cells); host or cells: HCT-116 BRAF−/− cells, clone 63, lentiviral transduction
The test is described as follows: BRAF HiBiT degradation assay, C-terminal HiBiT-tagged BRAF D594G overexpressed in HCT-116 BRAF−/− cells (clone 63), Nano-Glo HiBiT Lytic assay. Put shortly:
as §1

Where [5] appears, read: Class 2, BRAF G469A, DC50 at 50%: fitted conc. at Y=50.
Where [6] appears, read: HCT-116, Class 2, BRAF G469A, percentage protein degraded at maximal compound effect relative to DMSO.
Setting [7] is: A375 (BRAF V600E), DC50 at 50%: fitted conc. at Y=50.
[8] abbreviates: A375 (BRAF V600E), percentage protein degraded at maximal compound effect relative to DMSO.
The mark [9] stands for this setting: BRAF G466V, DC50 at 50%: fitted conc. at Y=50.
Setting [10] is: HCT-116, BRAF G466V, percentage protein degraded at maximal compound effect relative to DMSO.
[11] abbreviates: BRAF D594G, DC50 at 50%: fitted conc. at Y=50.
Setting [12] is: HCT-116, BRAF D594G, percentage protein degraded at maximal compound effect relative to DMSO.
The mark [13] stands for this setting: BRAF G469A (Class 2), HCT-116 BRAF−/− cells, DC50 at 50% degradation.
The mark [14] stands for this setting: BRAF G469A (Class 2), HCT-116 BRAF−/− cells, observed Dmax relative to DMSO control.
[15] abbreviates: A375 (BRAF V600E, Class 1), DC50 at 50% degradation.
[16] abbreviates: A375 (BRAF V600E, Class 1), observed Dmax, % protein degraded relative to DMSO control.
[17] abbreviates: BRAF G466V (Class 3), HCT-116 BRAF−/− cells, DC50 at 50% degradation.
The mark [18] stands for this setting: BRAF G466V (Class 3), HCT-116 BRAF−/− cells, observed Dmax relative to DMSO control.
The mark [19] stands for this setting: BRAF D594G (Class 3), HCT-116 BRAF−/− cells, DC50 at 50% degradation.
The mark [20] stands for this setting: BRAF D594G (Class 3), HCT-116 BRAF−/− cells, observed Dmax relative to DMSO control.

Experimental findings from patent US20260317324A1, “BIFUNCTIONAL COMPOUNDS FOR DEGRADING BRAF VIA UBIQUITIN PROTEOSOME PATHWAY” (Nurix Therapeutics, Inc., priority 2023, published 2026) are described below.

Each structure is given as a SMILES string. A value given as a limit tells only on which side of the number the result lay.

T4 sequence (P15056 whole entry D594G): as the sequence (P15056 whole entry V600E, the tested form may be a part) above, with D594G, E600V counted along it
T1 sequence (P15056 whole entry G469A): as the sequence (P15056 whole entry V600E, the tested form may be a part) above, with G469A, E600V counted along it

As a reminder, the DC50 is the midpoint of the concentration-degradation curve. Read a high DC50 as a less potent degrader. Usually Dmax stands for the greatest extent of degradation seen. Higher therefore signals a fuller loss of target. Turning to `CCCS(=O)(=O)Nc1cccc(-c2nc(-c3ccc(C4CCN(CC5CCN(c6ccc([C@@H]7CCC(=O)NC7=O)cc6)CC5)CC4)cc3)sc2-c2ccnc(N)n2)c1F` [Compound 192, N-{3-[5-(2-aminopyrimidin-4-yl)-2-(4-{1-[(1-{4-[(3S)-2,6-dioxopiperidin-3-yl]phenyl}piperidin-4-yl)methyl]piperidin-4-yl}phenyl)-1,3-thiazol-4-yl]-2-fluorophenyl}propane-1-sulfonamide], the half-maximal degradation concentration (DC50) in test [1] (setting [5]) is greater than 0.5 µM; in test [2] (setting [7]), 0.01 to 0.05 µM; in test [3] (setting [9]), greater than 0.5 µM; in test [4] (setting [11]), greater than 0.5 µM. The maximal degradation (Dmax) in test [1] (setting [6]) is less than 30%; in test [2] (setting [8]) it was greater than 70%; in test [3] (setting [10]), 30 to 70%; in test [4] (setting [12]), 30 to 70%.

On to `O=C1CCN(c2ccc(N3CCC(CN4CCN(c5ccc(-n6cc(-c7cc(Cl)cc(NS(=O)(=O)N8CCCC8)c7F)c(-c7ccncc7)n6)cc5F)CC4)CC3)cc2)C(=O)N1` [Compound 361, N-[5-chloro-3-(1-{4-[4-({1-[4-(2,4-dioxo-1,3-diazinan-1-yl)phenyl]piperidin-4-yl}methyl)piperazin-1-yl]-3-fluorophenyl}-3-(pyridin-4-yl)-1H-pyrazol-4-yl)-2-fluorophenyl]pyrrolidine-1-sulfonamide], for which the half-maximal degradation concentration (DC50) in test [1] (setting [13]) was greater than 0.5 µM; in test [2] (setting [15]) it was less than 0.01 µM; in test [3] (setting [17]), less than 0.01 µM; in test [4] (setting [19]) it was less than 0.01 µM. Besides, the greatest degradation seen (Dmax) is 30 to 70% in test [1] (setting [14]), greater than 70% in test [2] (setting [16]), greater than 70% in test [3] (setting [18]) and 30 to 70% in test [4] (setting [20]).

Consider `CCN(C)S(=O)(=O)Nc1cc(Cl)cc(-c2cn(-c3ccc(N4CCN(CC5CCN(c6ccc([C@H]7CCC(=O)NC7=O)cc6)CC5)CC4)cn3)nc2-c2ccncc2)c1F` [Compound 310, (3R)-3-(4-{4-[(4-{6-[4-(5-chloro-3-{[ethyl(methyl)sulfamoyl]amino}-2-fluorophenyl)-3-(pyridin-4-yl)-1H-pyrazol-1-yl]pyridin-3-yl}piperazin-1-yl)methyl]piperidin-1-yl}phenyl)piperidine-2,6-dione], for which the DC50 in test [1] (setting [13]) is 0.01 to 0.05 µM; in test [2] (setting [15]), less than 0.01 µM; in test [3] (setting [17]), 0.01 to 0.05 µM; in test [4] (setting [19]), less than 0.01 µM. Moreover, the Dmax in test [1] (setting [14]) was 30 to 70%; in test [2] (setting [16]), greater than 70%; in test [3] (setting [18]) it was greater than 70%; in test [4] (setting [20]) it was greater than 70%.

For `CCCS(=O)(=O)Nc1cccc(-c2nc(C(C)(C)C)sc2-c2ccnc(Nc3cccc(OC4CCN(C[C@H]5CC[C@H](Oc6ccc(C7CCC(=O)NC7=O)cc6)CC5)CC4)c3)n2)c1F` (mixture of isomers) [Compound 72, N-(3-(2-(tert-butyl)-5-(2-((3-((1-(((1R,4r)-4-(4-((RS)-2,6-dioxopiperidin-3-yl)phenoxy)cyclohexyl)methyl)piperidin-4-yl)oxy)phenyl)amino)pyrimidin-4-yl)thiazol-4-yl)-2-fluorophenyl)propane-1-sulfonamide], the 50% degradation concentration (DC50) was greater than 0.5 µM in test [1] (setting [5]), 0.01 to 0.05 µM in test [2] (setting [7]), greater than 0.5 µM in test [3] (setting [9]) and greater than 0.5 µM in test [4] (setting [11]). Further, the Dmax is less than 30% in test [1] (setting [6]), 30 to 70% in test [2] (setting [8]), 30 to 70% in test [3] (setting [10]) and 30 to 70% in test [4] (setting [12]).

On to `O=C1CCN(c2ccc(N3CCC(CN4CCN(c5ccc(-n6cc(-c7cc(Cl)cc(NS(=O)(=O)N8CC(F)C8)c7F)c(-c7ccncc7)n6)c(F)c5)CC4)CC3)cc2)C(=O)N1` [Compound 339, N-[5-chloro-3-(1-{4-[4-({1-[4-(2,4-dioxo-1,3-diazinan-1-yl)phenyl]piperidin-4-yl}methyl)piperazin-1-yl]-2-fluorophenyl}-3-(pyridin-4-yl)-1H-pyrazol-4-yl)-2-fluorophenyl]-3-fluoroazetidine-1-sulfonamide], for which the 50% degradation concentration (DC50) was greater than 0.5 µM in test [1] (setting [13]), less than 0.01 µM in test [2] (setting [15]), less than 0.01 µM in test [3] (setting [17]) and 0.01 to 0.05 µM in test [4] (setting [19]). The greatest degradation seen (Dmax) in test [1] (setting [14]) is less than 30%; in test [2] (setting [16]), greater than 70%; in test [3] (setting [18]) it was 30 to 70%; in test [4] (setting [20]), 30 to 70%.

`CCCS(=O)(=O)Nc1cccc(-c2nc(C3(C)CCN(C(=O)CN4CCC5(CC4)CN(c4ccc6c(c4)C(=O)N(C4CCC(=O)NC4=O)C6=O)C5)CC3)sc2-c2ccnc(N)n2)c1F` (racemic) [Compound 238, Rac-N-{3-[5-(2-aminopyrimidin-4-yl)-2-{1-[2-(2-{2-[(3R)-2,6-dioxopiperidin-3-yl]-1,3-dioxo-2,3-dihydro-1H-isoindol-5-yl}-2,7-diazaspiro[3.5]nonan-7-yl)acetyl]-4-methylpiperidin-4-yl}-1,3-thiazol-4-yl]-2-fluorophenyl}propane-1-sulfonamide]: the DC50 in test [1] (setting [5]) was greater than 0.5 µM; in test [2] (setting [7]), less than 0.01 µM; in test [3] (setting [9]) it was 0.01 to 0.05 µM; in test [4] (setting [11]) it was less than 0.01 µM. For the same molecule, the Dmax in test [1] (setting [6]) is 30 to 70%; in test [2] (setting [8]), greater than 70%; in test [3] (setting [10]), 30 to 70%; in test [4] (setting [12]), 30 to 70%.

Consider `O=C1CCC(N2C(=O)c3ccc(N4CC(CN5CC(c6ccc(-n7cc(-c8ccc9c(c8)CC/C9=N/O)c(-c8ccncc8)n7)cc6)C5)C4)cc3C2=O)C(=O)N1` (racemic) [Compound 262, Rac-2-[(3R)-2,6-dioxopiperidin-3-yl]-5-(3-{[3-(4-{4-[(1Z)-1-(hydroxyimino)-2,3-dihydro-1H-inden-5-yl]-3-(pyridin-4-yl)-1H-pyrazol-1-yl}phenyl)azetidin-1-yl]methyl}azetidin-1-yl)-2,3-dihydro-1H-isoindole-1,3-dione], for which the DC50 in test [1] (setting [13]) was greater than 0.5 µM; in test [2] (setting [15]), less than 0.01 µM; in test [3] (setting [17]), greater than 0.5 µM; in test [4] (setting [19]) it was greater than 0.5 µM. Moreover, the Dmax in test [1] (setting [14]) was less than 30%; in test [2] (setting [16]), greater than 70%; in test [3] (setting [18]) it was less than 30%; in test [4] (setting [20]), less than 30%.

For `CCCS(=O)(=O)Nc1cccc(-c2nc(C(C)(C)C)sc2-c2ccnc(Nc3ccc(C4CCN(C(=O)[C@@H]5CCN(c6ccc(C7CCC(=O)NC7=O)cn6)C5)CC4)cc3)n2)c1F` (mixture of isomers) [Compound 164, N-[3-(2-tert-butyl-5-{2-[(4-{1-[(3R)-1-{5-[(3RS)-2,6-dioxopiperidin-3-yl]pyridin-2-yl}pyrrolidine-3-carbonyl]piperidin-4-yl}phenyl)amino]pyrimidin-4-yl}-1,3-thiazol-4-yl)-2-fluorophenyl]propane-1-sulfonamide], the DC50 is greater than 0.5 µM in test [1] (setting [5]), less than 0.01 µM in test [2] (setting [7]), greater than 0.5 µM in test [3] (setting [9]) and greater than 0.5 µM in test [4] (setting [11]). Also, the Dmax in test [1] (setting [6]) was less than 30%; in test [2] (setting [8]), greater than 70%; in test [3] (setting [10]) it was 30 to 70%; in test [4] (setting [12]) it was 30 to 70%.

On to `O=C1CC[C@H](c2ccc(N3CCC(CN4CCN(c5ccc(-n6cc(-c7cc(F)cc(NS(=O)(=O)N8CC[C@@H](F)C8)c7F)c(-c7ccncc7)n6)nc5)CC4)CC3)cc2)C(=O)N1` [Compound 302, (3R)—N-{3-[1-(5-{4-[(1-{4-[(3R)-2,6-dioxopiperidin-3-yl]phenyl}piperidin-4-yl)methyl]piperazin-1-yl}pyridin-2-yl)-3-(pyridin-4-yl)-1H-pyrazol-4-yl]-2,5-difluorophenyl}-3-fluoropyrrolidine-1-sulfonamide], for which the DC50 was 0.01 to 0.05 µM in test [1] (setting [13]), less than 0.01 µM in test [2] (setting [15]), less than 0.01 µM in test [3] (setting [17]) and less than 0.01 µM in test [4] (setting [19]). Moreover, the maximal degradation (Dmax) in test [1] (setting [14]) is 30 to 70%; in test [2] (setting [16]), greater than 70%; in test [3] (setting [18]) it was greater than 70%; in test [4] (setting [20]) it was greater than 70%.
